# Measurements: US12728125B2, “Methods for treating neutropenia” (X4 Pharmaceuticals, Inc., priority 2020, dated 2026)
# Marks after values point to notes of the source that are not given here.
# Assays:
# [1] = tested on: circulating CFU-GM, BFU-E, CFU-GEMM progenitor cells and nucleated cells; assay: Progenitor/stem cell mobilization in mice after single subcutaneous injection; type: in vivo, C3H/HeJ mice
# Procedure: A further study was conducted to determine whether X4P-001 mobilizes progenitor/stem cells in mice. All experiments were performed in […] mice. X4P-001 and AMD3 100/plerixafor were administered via single subcutaneous injection at the doses described below. The mobilization capacity of X4P-001 was assessed by the numbers of granulocyte-macrophage (CFU-GM), erythroid (BFU-E) and multipotential (CFU-GEMM) progenitor cells per mL of blood. The progenitors were stimulated to form colonies in vitro with the combination of 1 U/mL rhu EPO, 50 ng/mL rmu SLF, 5% vol/vol pokeweed mitogen mouse spleen cell conditioned medium (PWMSCM), and 0.1 mM hemin. Plates were scored 7 days after incubation at 37° C., […] and in a humidified chamber.
# In the first experiment (data shown in Table 7), mice received a dose of 5 mg/kg- and the number of progenitors in the circulating blood was measured at various time points (0.25, 0.5, 1, 2, 6 and 24 hours).
# An X4P-001 dose-response was performed by measurement of the number of circulating progenitors in the blood at 1 hour post-injection at various doses (1.5, 2.5, 5, 10 and 20 mg/kg).
# A final experiment was performed to compare the progenitor cell mobilization capacity of X4P-001 and AMD3100/plerixafor.
# [2] = tested on: WBC, neutrophil and lymphocyte counts; assay: Hematologic effects of a single oral dose in the male Beagle dog; type: in vivo
# Procedure: Three fasted male Beagle dogs received a single dose of X4P-001 in aqueous solution by oral gavage at dose levels of 5, 15, and 35 mg/kg (1 dog per dose level) in a volume of 1 mL/kg. Blood samples (approximately 3 mL each) were obtained at multiple timepoints from each animal by direct venipuncture of the jugular vein and collected using Vacutainer® tubes containing K3EDTA as the anticoagulant. Blood samples were obtained at pre-dose, and 0.25, 0.5, 0.75, 1, 1.5, 2, 3, 4, 7, 12, and 24 hours post-dose. Blood samples were stored at ambient room temperature prior to automated differential analysis.
# Body weights were determined prior to dosing on the day of test article administration.
# Hematology parameters included the following: • White Blood Cell Count (WBC) • Differential white blood cell count (absolute and relative) • Neutrophil • Lymphocytes • Monocytes • Eosinophils • Basophils • Large Unstained Cells (LUC) • Hematocrit (HCT) • Hemoglobin (HGB) • Mean Corpuscular Hemoglobin (MCH) • Mean Corpuscular Hemoglobin Concentration (MCHC) • Mean Corpuscular Volume (MCV) • Platelet Count (PLT). • Red Blood Cell Count (RBC) Results
# [3] = tested on: hematology and coagulation; assay: 28-day GLP oral (capsule) toxicity study in the Beagle dog with 14-day recovery; type: in vivo
# Procedure: A 28-Day GLP oral (capsule) toxicology study was conducted with […]-001 in the male and female beagle dog, and hematology effects were observed, with […]-001 administered twice-daily (at least 7 hours apart) by oral capsule for 28 days. A subset of treated animals was evaluated after a 14-day recovery period. [table] [table]
# [4] = human, in vivo
# Procedure: In some embodiments, the dose is selected to provide consistent clinically relevant elevations of both ANC and ALC, with low risk of significant adverse effects. Dosage of 400 mg per day BID for 3.5 days (healthy volunteers) (Stone 2007) and 200 mg BID for 8-10 days (healthy volunteers and HIV patients) were well-tolerated with no pattern of adverse events or clinically significant laboratory changes.
# [5] = in vivo
# Procedure: In certain embodiments, the dosage composition may be provided twice a day in divided dosage, approximately 12 hours apart. In other embodiments, the dosage composition may be provided once daily.
# [6] = biological target: CXCR4 (Homo sapiens, UniProt P61073); conditions: SDF-1α dose/response in calcium flux with increasing X4P-001; cited from earlier work
# [7] = 400-mg single-dose subject (Stone, 2007); cited from earlier work
# [8] = cited from earlier work; for Bone pain incidence, as high as: Ferguson 2015 (filgrastim), Kirshner 2012 (pegfilgrastim)
# [9] = Table 9 comparison, 5 mg/kg s.c., @ - 60″ (1 h)
# [10] = females, 10 mg/kg/d, Day 28, p < 0.05
# [11] = females, 30 mg/kg/d, Day 28, p < 0.05
# [12] = females, 100 mg/kg/d, Day 28, p < 0.05
# [13] = males, 100 mg/kg/d, Day 28, p < 0.05
# [14] = Table 7 time course, 5 mg/kg s.c., @ - 2′ (2 h)
# [15] = Table 7 time course, 5 mg/kg s.c., @ - 6′ (6 h)
# [16] = Table 7 time course, 5 mg/kg s.c., @ - 15″ ([…])
# [17] = Table 7 time course, 5 mg/kg s.c., @ - 24′ (24 h)
# [18] = Table 7 time course, 5 mg/kg s.c., @ - 30″ (0.5 h)
# [19] = Table 7 time course, 5 mg/kg s.c., @ - 60″ (1 h)
# [20] = Table 8 dose response, 1 hour post-injection, 1.5 mg/kg
# [21] = Table 8 dose response, 1 hour post-injection, 5 mg/kg
# [22] = Table 8 dose response, 1 hour post-injection, 10 mg/kg
# [23] = Table 8 dose response, 1 hour post-injection, 20 mg/kg
# [24] = Table 9 comparison, 5 mg/kg s.c., @ - 2′ (2 h)
# [25] = Table 9 comparison, 5 mg/kg s.c., @ - 15″ ([…])
# [26] = Table 9 comparison, 5 mg/kg s.c., @ - 30″ (0.5 h)
# CXCR4, sequence (P61073 whole entry): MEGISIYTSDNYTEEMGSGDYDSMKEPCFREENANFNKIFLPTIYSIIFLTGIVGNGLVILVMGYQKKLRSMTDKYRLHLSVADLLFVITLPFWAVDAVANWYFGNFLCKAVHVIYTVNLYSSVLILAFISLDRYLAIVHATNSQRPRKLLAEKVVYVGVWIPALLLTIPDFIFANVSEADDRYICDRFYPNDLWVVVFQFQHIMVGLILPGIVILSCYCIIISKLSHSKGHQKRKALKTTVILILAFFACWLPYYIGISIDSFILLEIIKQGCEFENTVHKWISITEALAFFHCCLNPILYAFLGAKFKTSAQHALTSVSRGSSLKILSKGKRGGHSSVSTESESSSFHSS
molecule,measurement,setting,value
"c1cc(CN2CCCNCCNCCCNCC2)ccc1CN1CCCNCCNCCCNCC1 [AMD3100, plerixafor, reference compound]","BFU (BFU-E), Mean",[1]; [9],207.7 per mL of blood
same,"GEMM (CFU-GEMM), Mean",[1]; [9],138.5 per mL of blood
same,"GM (CFU-GM), Mean",[1]; [9],1950.3 per mL of blood
"NCCCCN(Cc1nc2ccccc2[nH]1)[C@H]1CCCc2cccnc21 [Mavorixafor, mavorixafor]",Time at which increases typically peaked,"[2]; 5, 15, 35 mg/kg oral",12 h
same,Other hematological effects,"[2]; single oral dose 5, 15, 35 mg/kg",No other hematological effects were observed
same,Hematology results after the 14-day recovery period,[3]; 100 mg/kg dose group,returned to within normal levels
same,"Lymphocytes (abs), increase","[3]; females, 10 mg/kg/d, Day 28",F incr 1.4×
same,"Monocytes (abs), increase",[3]; [10],F incr 1.6×†
same,"Neutrophils (abs), increase",[3]; [10],F incr 1.9×†
same,"Lymphocytes (abs), increase",[3]; [11],F incr 1.6×†
same,"Monocytes (abs), increase",[3]; [11],F incr 1.9×†
same,"Neutrophils (abs), increase",[3]; [11],F incr 2.3×†
same,"Lymphocytes (abs), increase",[3]; [12],F incr 1.4×†
same,"Monocytes (abs), increase",[3]; [12],F incr 2.4×†
same,"Neutrophils (abs), increase",[3]; [12],F incr 2.8×†
same,"Reticulocytes, decrease",[3]; [12],F decr 0.24†
same,"Lymphocytes (abs), increase","[3]; males, 10 mg/kg/d, Day 28",M incr 1.3×;
same,"Monocytes (abs), increase","[3]; males, 10 mg/kg/d, Day 28",M incr 1.2×;
same,"Neutrophils (abs), increase","[3]; males, 10 mg/kg/d, Day 28",M incr 1.2×;
same,"Lymphocytes (abs), increase","[3]; males, 30 mg/kg/d, Day 28",M incr 1.6×;
same,"Monocytes (abs), increase","[3]; males, 30 mg/kg/d, Day 28",M incr 1.3×;
same,"Neutrophils (abs), increase","[3]; males, 30 mg/kg/d, Day 28",M incr 1.2×;
same,"Neutrophils (abs), increase","[3]; males, 100 mg/kg/d, Day 28",M incr 1.8×;
same,"Lymphocytes (abs), increase",[3]; [13],M incr 2.3×†;
same,"Monocytes (abs), increase",[3]; [13],M incr 1.9×†;
same,"BFU (BFU-E), Mean",[1]; [14],165.3 per mL of blood
same,"GEMM (CFU-GEMM), Mean",[1]; [14],68.9 per mL of blood
same,"GM (CFU-GM), Mean",[1]; [14],897.5 per mL of blood
same,"BFU (BFU-E), Mean",[1]; [15],99.9 per mL of blood
same,"GEMM (CFU-GEMM), Mean",[1]; [15],37.6 per mL of blood
same,"GM (CFU-GM), Mean",[1]; [15],387.5 per mL of blood
same,"BFU (BFU-E), Mean",[1]; [16],148.8 per mL of blood
same,"GEMM (CFU-GEMM), Mean",[1]; [16],65.6 per mL of blood
same,"GM (CFU-GM), Mean",[1]; [16],785.1 per mL of blood
same,"BFU (BFU-E), Mean",[1]; [17],84.6 per mL of blood
same,"GEMM (CFU-GEMM), Mean",[1]; [17],37.7 per mL of blood
same,"GM (CFU-GM), Mean",[1]; [17],386.3 per mL of blood
same,"BFU (BFU-E), Mean",[1]; [18],230.4 per mL of blood
same,"GEMM (CFU-GEMM), Mean",[1]; [18],99.6 per mL of blood
same,"GM (CFU-GM), Mean",[1]; [18],1273.8 per mL of blood
same,"BFU (BFU-E), Mean",[1]; [19],235.1 per mL of blood
same,"GEMM (CFU-GEMM), Mean",[1]; [19],103.1 per mL of blood
same,"GM (CFU-GM), Mean",[1]; [19],866.0 per mL of blood
same,"BFU (BFU-E), Mean",[1]; [20],143.8 per mL of blood
same,"GEMM (CFU-GEMM), Mean",[1]; [20],53.3 per mL of blood
same,"GM (CFU-GM), Mean",[1]; [20],428.0 per mL of blood
same,"BFU (BFU-E), Mean",[1]; [21],181.6 per mL of blood
same,"GEMM (CFU-GEMM), Mean",[1]; [21],141.0 per mL of blood
same,"GM (CFU-GM), Mean",[1]; [21],1119.8 per mL of blood
same,"BFU (BFU-E), Mean",[1]; [22],268.1 per mL of blood
same,"GEMM (CFU-GEMM), Mean",[1]; [22],224.4 per mL of blood
same,"GM (CFU-GM), Mean",[1]; [22],1444.2 per mL of blood
same,"BFU (BFU-E), Mean",[1]; [23],261.4 per mL of blood
same,"GEMM (CFU-GEMM), Mean",[1]; [23],145.0 per mL of blood
same,"GM (CFU-GM), Mean",[1]; [23],1314.2 per mL of blood
same,"BFU (BFU-E), Mean",[1]; [24],108.5 per mL of blood
same,"GEMM (CFU-GEMM), Mean",[1]; [24],62.4 per mL of blood
same,"GM (CFU-GM), Mean",[1]; [24],619.6 per mL of blood
same,"BFU (BFU-E), Mean",[1]; [25],188.9 per mL of blood
same,"GEMM (CFU-GEMM), Mean",[1]; [25],93.8 per mL of blood
same,"GM (CFU-GM), Mean",[1]; [25],588.3 per mL of blood
same,"BFU (BFU-E), Mean",[1]; [26],151.9 per mL of blood
same,"GEMM (CFU-GEMM), Mean",[1]; [26],79.0 per mL of blood
same,"GM (CFU-GM), Mean",[1]; [26],705.9 per mL of blood
same,"BFU (BFU-E), Mean",[1]; [9],144.3 per mL of blood
same,"GEMM (CFU-GEMM), Mean",[1]; [9],102.2 per mL of blood
same,"GM (CFU-GM), Mean",[1]; [9],761.4 per mL of blood
same,Overall tolerability in clinical studies,[4],generally well tolerated
same,Terminal half-life,[5],approximately 14.5 hrs
same,Mode of CXCR4 inhibition,[6],allosteric inhibitor
same,Increase in circulating white blood cells (leukocytosis) above baseline,[7],2.9 fold
"pegfilgrastim (protein, chains of the INN, looked up, PEG conjugate, N-terminal methionine, pegylated G-CSF) TPLGPASSLPQSFLLKCLEQVRKIQGDGAALQEKLCATYKLCHPEELVLLGHSLGIPWAPLSSCPSQALQLAGCLSQLHSGLFLYQGLLQALEGISPELGPTLDTLQLDVADFATTIWQQMEELGMAPALQPTQGAMPAFASAFQRRAGGVLVASHLQSFLEVSYRVLRHLAQP","Bone pain incidence, as high as",[8],59%
same,Severe bone pain incidence,[8]; Kirshner et al. 2012,24%
"filgrastim (protein, chains of the INN, looked up, N-terminal methionine, recombinant, granulocyte colony-stimulating factor, standard of care for severe chronic neutropenia) MTPLGPASSLPQSFLLKCLEQVRKIQGDGAALQEKLCATYKLCHPEELVLLGHSLGIPWAPLSSCPSQALQLAGCLSQLHSGLFLYQGLLQALEGISPELGPTLDTLQLDVADFATTIWQQMEELGMAPALQPTQGAMPAFASAFQRRAGGVLVASHLQSFLEVSYRVLRHLAQP","Bone pain incidence, as high as",[8],66%
same,Bone pain incidence reported on label,[8]; label,24%
